Test results as given in patent US8236854B2, “Lipid-improving agent and composition containing lipid-improving agent” (Suntory Holdings Limited, priority 2003, dated 2012).
Marks after values point to notes of the source that are not given here.

How the values were obtained:
Format in all cases: in vivo, rat
Male rats of SD strain [1] = assay: Serum lipid lowering action of structured lipids in high-fat food, two weeks (Example 6); settings: High-TG Food (20% fat) with 7.5% structured lipid, 2 weeks
Source text: Influence of arachidonic acid chemically synthesized in Example 2 on serum lipid lowering action of the constituting fatty acid was investigated in a high-fat foods.
Male rats of SD strain of 5 weeks age were divided into eight groups each comprising five rats, acclimatized for one week with a standard solid feed and ingested for two weeks with the experimental food as shown in Table 7 and Table 8 (normal, high-TG, 7.5% PPP, 7.5% PAP, 7.5% PPA, 7.5% 8P8, 7.5% 8A8 and 7.5% 88A). Incidentally, the condition for a high-fat food was that the rate of fat/oil in the feed was made 20%, beef tallow abundant in saturated fatty acid was used as a base and 2% of corn oil were compounded to avoid the deficiency of essential fatty acids. In the control group, an experimental food (high-TG food, 20% fat/oil food) compounded with 18% of […] (20% as a result of addition of 2% of corn oil) was used.

Male rats of SD strain [2] = assay: Ingestion of experimental food with 10% structured lipid for two weeks: body weight, liver weight, serum lipid concentration (Example 5); settings: 10% structured lipid in experimental food, 2 weeks
Source text: (§1) Influence of the structured lipid where arachidonic acid chemically synthesized in Example 2 as a constituting fatty acid on expression of lipid metabolism-related gene was investigated using rats.
(§2) Male rats of SD strain of 5 weeks age were divided into four groups each comprising five rats, acclimatized for one week with a standard solid feed and ingested for two weeks with an experimental food (10% PPA and 10% PAP; Table 5) compounded with 10% of arachidonic acid-containing structured lipid (PPA or PAP). In the control group, an experimental food (10% PPP) compounded with 10% of PPP was used. In ingestion of the food, a pair-feeding was conducted and body weight was measured every day.

[3] = tested on: target gene of PPAR of jejunum; assay: Influence of structured lipid on expression of target gene of PPAR of jejunum (Example 5); settings: rats, 10% structured lipid food, compared with PPP food control group
Source text: as §1, §2
Influence of structured lipid on expression of target gene of PPAR of jejunum is shown (FIG. 4). From PPA, each one molecule of palmitic acid and arachidonic acid is dissociated and absorbed by the action of pancreatic lipase specific to 1,3-positions and arachidonic acid having a particularly strong PPAR ligand activity acts as a PPARα ligand in small intestine and, therefore, expressed amount of target gene of PPAR increased in a group of 10% PPA food as compared with a PPP food group which is a control group. […]

PPARα mRNA of liver = assay: Influence of structured lipid on liver PPARα mRNA expression (Example 5); settings: rats, 10% PAP food, 2 weeks
Source text: as §1, §2
Two molecules of palmitic acid and one molecule of 2-AG incorporated into epidermal cells of small intestine are reconstructed to a triglyceride(s) (in that case, although there is a possibility of bonding of other inherent fatty acids existing in the epidermal cells of the small intestine to 1,3-positions, arachidonic acid bonded to 2-position is retained), incorporated into chylomicron, transferred to peripheral tissues together with secretion of lymph and blood flow and finally incorporated into liver.

| SMILES | Serum Total Cholesterol Concn (Male rats of SD strain [1]) | Serum Triglyceride(s) Concn (Male rats of SD strain [1]) | Serum Total Cholesterol Concn (Male rats of SD strain [2]) | Serum Triglyceride(s) Concn (Male rats of SD strain [2]) | Expressed amount of target gene of PPAR in jejunum [3] | Expressed amount of PPARα mRNA of liver (PPARα mRNA of liver) |
| --- | --- | --- | --- | --- | --- | --- |
| CCCCC/C=C\C/C=C\C/C=C\C/C=C\CCCC(=O)OC(COC(=O)CCCCCCC)COC(=O)CCCCCCC [8A8, 1,3-dioctanoyl-2-arachidonoyl glyceride] | 85.6 ± 2.5^b μmol/dl | 63.3 ± 4.1^a μmol/dl | – | – | – | – |
| CCCCCCCCCCCCCCCC(=O)OCC(COC(=O)CCCCCCCCCCCCCCC)OC(=O)CCCCCCCCCCCCCCC [PPP, reference compound] | 104.3 ± 5.9^b μmol/dl | 109.2 ± 6.8^b μmol/dl | 201 ± 9.2^a μmol/dl | 316 ± 64.3^b μmol/dl | – | – |
| CCCCC/C=C\C/C=C\C/C=C\C/C=C\CCCC(=O)OCC(COC(=O)CCCCCCC)OC(=O)CCCCCCC (centres unmarked) [88A, 1(3),2-dioctanoyl-3(1)-arachidonoyl glyceride] | 92.9 ± 2.9^a μmol/dl | 83.1 ± 3.6^a μmol/dl | – | – | – | – |
| CCCCCCCCCCCCCCCC(=O)OC(COC(=O)CCCCCCC)COC(=O)CCCCCCC [8P8, 1,3-capryloyl-2-palmitoyl-glyceride, reference compound] | 99.7 ± 4.2^b μmol/dl | 101.8 ± 5.3^b μmol/dl | – | – | – | – |
| CCCCC/C=C\C/C=C\C/C=C\C/C=C\CCCC(=O)OCC(COC(=O)CCCCCCCCCCCCCCC)OC(=O)CCCCCCCCCCCCCCC (centres unmarked) [PPA, 1(3),2-dipalmitoyl-3(1)-arachidonoyl glyceride] | 92.4 ± 4.9^a μmol/dl | 93.1 ± 1.3^a μmol/dl | 150 ± 16.6^b μmol/dl | 173 ± 6.6^b μmol/dl | increased | – |
| CCCCC/C=C\C/C=C\C/C=C\C/C=C\CCCC(=O)OC(COC(=O)CCCCCCCCCCCCCCC)COC(=O)CCCCCCCCCCCCCCC [PAP, 1,3-dipalmitoyl-2-arachidonoyl glyceride] | 91.7 ± 3.3^a μmol/dl | 80.4 ± 3.9^a μmol/dl | 178 ± 15.3^ab μmol/dl | 174 ± 7.5^b μmol/dl | – | significantly increased |
